Measured values as given in PMC6923384, “Insights into the κ/ι-carrageenan metabolism pathway of some marine Pseudoalteromonas species” (Communications Biology, 2019).

Key:
[1] = molecular target: T1, GH167 (Pseudoalteromonas fuliginea, UniProt A0ABQ6RII1); assay: thin layer chromatography of products; type: biochemical; details: hydrolysis of β-1,4-linkage to κ-NC2 and likely β-NC2
T1 construct: gene EU509_08810; residues 21-808, signal peptide removed, pET28a His-tag, E. coli BL21(DE3) Star

[2] = molecular target: T2, BovGH167 (Bacteroides ovatus, UniProt A0ABF7PI57); assay: thin layer chromatography of products; type: biochemical; details: hydrolysis of β-1,4-linkage to κ-NC2 and likely β-NC2 activity as GH167
T2 construct: gene HMPREF1069_02044; residues 26-775, synthetic codon-optimised gene, pET28a His-tag, E. coli BL21(DE3) Star
T2 sequence (A0ABF7PI57 26-775): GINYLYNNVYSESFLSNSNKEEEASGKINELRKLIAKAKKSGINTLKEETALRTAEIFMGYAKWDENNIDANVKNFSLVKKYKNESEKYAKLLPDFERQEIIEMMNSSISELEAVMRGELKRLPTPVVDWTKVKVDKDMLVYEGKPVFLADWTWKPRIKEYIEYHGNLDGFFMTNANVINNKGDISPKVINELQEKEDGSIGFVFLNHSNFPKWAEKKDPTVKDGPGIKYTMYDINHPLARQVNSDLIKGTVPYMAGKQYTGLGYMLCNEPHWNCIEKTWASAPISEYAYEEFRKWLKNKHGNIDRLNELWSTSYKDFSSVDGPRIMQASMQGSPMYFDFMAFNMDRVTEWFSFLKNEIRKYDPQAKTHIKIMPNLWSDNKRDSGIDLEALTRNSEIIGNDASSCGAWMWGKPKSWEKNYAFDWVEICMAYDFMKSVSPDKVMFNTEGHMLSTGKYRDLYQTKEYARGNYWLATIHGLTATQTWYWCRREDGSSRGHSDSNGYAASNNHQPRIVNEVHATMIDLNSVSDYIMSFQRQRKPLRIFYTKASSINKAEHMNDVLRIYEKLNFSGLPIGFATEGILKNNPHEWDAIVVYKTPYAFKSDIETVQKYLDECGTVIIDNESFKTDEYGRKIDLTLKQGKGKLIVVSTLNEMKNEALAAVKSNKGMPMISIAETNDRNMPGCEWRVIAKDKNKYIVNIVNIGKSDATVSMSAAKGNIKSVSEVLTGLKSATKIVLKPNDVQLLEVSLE

[3] = molecular target: T3, S1_19A (Pseudoalteromonas fuliginea, UniProt A0ABQ6RIU8); assay: product analysis, details in supplement; type: biochemical; details: removes 4-sulfate from G4S adjacent to the non-reducing end
T3 construct: gene EU509_08825; pET28a His-tag, E. coli BL21(DE3) Star with formylglycine generating enzyme; cloning described previously

[4] = molecular target: T4, S1_NC (Pseudoalteromonas fuliginea, UniProt A0ABQ6RIJ3, C84S); assay: crystal structure of the complex; type: binding; details: crystal soaking; only the non-reducing end disaccharide (ι-NC2) modelled; active site
T4 construct: gene EU509_08820; residues 34-507, signal peptide removed, pET28a N-terminal His-tag cut by thrombin for crystals, E. coli BL21(DE3) Star

[5] = molecular target: T5, S1_19B (Pseudoalteromonas fuliginea, UniProt A0ABQ6RIL2, C77S); assay: crystal structure of the complex; type: binding; details: co-crystallization; inactive (non-productive) complex; C77S inferred from methods (mutants in complex with ligands)
T5 construct: gene EU509_08890; residues 28-473, signal peptide removed, pET28a N-terminal His-tag (cut by thrombin for crystals), E. coli BL21(DE3) Star with formylglycine generating enzyme; dimer

[6] = molecular target: S1_19B, exo-G4S κ-carrageenan sulfatase from Pseudoalteromonas fuliginea PS47 (Pseudoalteromonas fuliginea PS47); assay: crystal structure; hanging drop vapor-diffusion at 18 °C; N-terminal His-Tag cleaved with thrombin before crystallization
[7] = molecular target: S1_19B, exo-G4S κ-carrageenan sulfatase from Pseudoalteromonas fuliginea PS47 (Pseudoalteromonas fuliginea PS47); assay: not stated; in solution; method told only in Supplementary Notes (section 3) and Supplementary Fig. 7b-d
[8] = molecular target: DauA, 3,6-anhydro-D-galactose dehydrogenase from Pseudoalteromonas fuliginea PS47 (Pseudoalteromonas fuliginea PS47); assay: crystal structure; hanging drop vapor-diffusion at 18 °C; N-terminal His-Tag cleaved with thrombin before crystallization

T3 sequence (A0ABQ6RIU8 entry or part of it): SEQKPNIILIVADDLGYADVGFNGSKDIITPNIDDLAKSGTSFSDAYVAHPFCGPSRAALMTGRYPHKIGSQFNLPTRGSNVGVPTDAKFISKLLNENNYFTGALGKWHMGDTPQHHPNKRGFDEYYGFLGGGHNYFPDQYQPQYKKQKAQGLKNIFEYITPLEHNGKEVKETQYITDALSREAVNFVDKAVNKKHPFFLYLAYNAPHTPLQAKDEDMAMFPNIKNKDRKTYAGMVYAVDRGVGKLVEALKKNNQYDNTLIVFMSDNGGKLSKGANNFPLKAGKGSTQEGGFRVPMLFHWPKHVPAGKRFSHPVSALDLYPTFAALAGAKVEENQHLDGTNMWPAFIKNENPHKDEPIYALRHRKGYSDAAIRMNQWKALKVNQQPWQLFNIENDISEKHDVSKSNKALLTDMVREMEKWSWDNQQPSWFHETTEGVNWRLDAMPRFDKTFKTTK
T4 sequence (A0ABQ6RIJ3 entry or part of it C84S): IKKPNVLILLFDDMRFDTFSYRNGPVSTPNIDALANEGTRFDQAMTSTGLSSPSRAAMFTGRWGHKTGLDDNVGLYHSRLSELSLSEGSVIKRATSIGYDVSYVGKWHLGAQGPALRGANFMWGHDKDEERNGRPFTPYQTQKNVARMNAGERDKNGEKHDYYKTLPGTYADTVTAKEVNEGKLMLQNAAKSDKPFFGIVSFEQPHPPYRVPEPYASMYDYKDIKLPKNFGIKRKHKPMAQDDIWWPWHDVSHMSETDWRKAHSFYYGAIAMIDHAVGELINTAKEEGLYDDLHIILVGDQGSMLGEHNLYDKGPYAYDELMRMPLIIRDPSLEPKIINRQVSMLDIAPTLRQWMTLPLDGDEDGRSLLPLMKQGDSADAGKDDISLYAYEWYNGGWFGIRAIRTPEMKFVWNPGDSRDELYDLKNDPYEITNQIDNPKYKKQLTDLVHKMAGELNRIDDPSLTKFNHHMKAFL
T1 sequence (A0ABQ6RII1 entry or part of it): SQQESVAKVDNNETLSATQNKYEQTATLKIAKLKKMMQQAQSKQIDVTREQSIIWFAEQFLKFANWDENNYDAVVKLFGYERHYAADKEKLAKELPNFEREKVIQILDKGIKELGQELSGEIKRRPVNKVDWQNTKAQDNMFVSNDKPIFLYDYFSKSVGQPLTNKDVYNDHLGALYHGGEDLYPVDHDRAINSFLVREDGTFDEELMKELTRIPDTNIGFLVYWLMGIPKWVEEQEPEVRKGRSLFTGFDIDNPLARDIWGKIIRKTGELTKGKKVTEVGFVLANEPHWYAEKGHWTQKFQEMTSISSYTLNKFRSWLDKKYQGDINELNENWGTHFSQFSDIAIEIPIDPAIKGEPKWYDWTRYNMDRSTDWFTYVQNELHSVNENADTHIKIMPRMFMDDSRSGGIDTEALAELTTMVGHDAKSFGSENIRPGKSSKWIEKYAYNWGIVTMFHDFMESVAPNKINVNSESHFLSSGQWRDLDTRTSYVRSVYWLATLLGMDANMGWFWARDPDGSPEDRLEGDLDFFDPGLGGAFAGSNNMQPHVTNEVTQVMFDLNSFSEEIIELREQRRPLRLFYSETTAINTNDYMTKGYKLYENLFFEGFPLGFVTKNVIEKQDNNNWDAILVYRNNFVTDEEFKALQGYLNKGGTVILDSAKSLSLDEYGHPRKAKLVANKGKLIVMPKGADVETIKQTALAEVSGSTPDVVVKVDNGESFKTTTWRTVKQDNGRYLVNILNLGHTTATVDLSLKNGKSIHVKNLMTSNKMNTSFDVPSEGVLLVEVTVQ
T5 sequence (A0ABQ6RIL2 entry or part of it C77S): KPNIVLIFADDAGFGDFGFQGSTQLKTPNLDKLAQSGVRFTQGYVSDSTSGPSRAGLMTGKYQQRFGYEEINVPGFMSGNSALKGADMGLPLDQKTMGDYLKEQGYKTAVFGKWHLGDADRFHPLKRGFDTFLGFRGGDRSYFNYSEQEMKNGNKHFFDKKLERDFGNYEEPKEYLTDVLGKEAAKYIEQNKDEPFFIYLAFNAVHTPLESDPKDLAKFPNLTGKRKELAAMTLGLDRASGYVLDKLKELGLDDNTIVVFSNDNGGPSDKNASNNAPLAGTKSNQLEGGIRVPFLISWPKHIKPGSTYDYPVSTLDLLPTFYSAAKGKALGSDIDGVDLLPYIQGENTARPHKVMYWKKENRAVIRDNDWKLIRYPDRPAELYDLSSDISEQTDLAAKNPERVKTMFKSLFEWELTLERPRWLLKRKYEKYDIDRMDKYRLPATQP

Which “thin layer chromatography of products” value [1] does the source give for `O=S(=O)(O)O[C@@H]1[C@H](O[C@H]2O[C@@H]3CO[C@H]([C@H]2O)[C@H]3O[C@@H]2O[C@H](CO)[C@H](O)[C@H](O[C@H]3O[C@@H]4CO[C@@H]([C@H]4O)[C@H]3O)[C@H]2O)[C@@H](O)C(O)O[C@@H]1CO` (stereo partly drawn) [β/κ-NC4, β/κ-neocarratetraose] here?
Its value is “Using TLC we found activity on hybrid β/κ-neocarratetraose (β/κ-NC4)”.

And the “thin layer chromatography of products” value [2]?
Its value is “has the same enzymatic activity as GH167 (Fig. 5a)”.

Which “product analysis, details in supplement” value [3] does the source give for `O=S(=O)(O)O[C@@H]1[C@H](O[C@H]2O[C@@H]3CO[C@@H]([C@H]3O)[C@H]2OS(=O)(=O)O)[C@@H](O)[C@H](O[C@@H]2[C@@H]3OC[C@H]2O[C@H](O[C@H]2[C@@H](OS(=O)(=O)O)[C@@H](CO)OC(O)[C@@H]2O)[C@@H]3OS(=O)(=O)O)O[C@@H]1CO` (some centres unmarked) [ι-NC4, ι-neocarratetraose] here?
The value was “can remove the 4-sulfate from the G4S residue that is adjacent to the non-reducing end”.

And the “crystal structure of the complex” value [4]?
The value was “structural analysis of the S1_NC C84S mutant in complex with ι-NC4”.

And the “crystal structure of the complex” value [5]?
The value was “the structure of this enzyme in complex with ι-NC4 revealed the ability of the enzyme to bind”.

“S1_19B, exo-G4S κ-carrageenan sulfatase from Pseudoalteromonas fuliginea PS47 (enzyme)” was tested. Which stoichiometry N [6] did it give?
The stoichiometry N was 2.

What about the stoichiometry N [7] of the same molecule?
Its stoichiometry N is 2.

How did the stoichiometry N [8] turn out when “DauA, 3,6-anhydro-D-galactose dehydrogenase from Pseudoalteromonas fuliginea PS47 (enzyme)” was run?
Its stoichiometry N is 2.
